US7863014B2 (priority 2001, dated 2011)

Tests used:
Ppnk [1] = molecular target: T1, Ppnk (Mycobacterium tuberculosis, UniProt P9WHV7); experiment: Effect of NADP and ADP on NADP-producing activity of purified Ppnk; format: biochemical, M. tuberculosis; conditions: various levels of NADP or ADP
Method: The NADP-producing activity was assayed in the presence of various levels of NADP (solid circles) or ADP (open circles).
A reaction for producing NADP was performed in a reaction mixture solution (4.0 ml) at 37° C. with shaking. […] After the reaction for 1 hour, 10 μl of the reaction mixture was collected and enzymatically assayed for NADP using isocitrate dehydrogenase (Sigma-Aldrich Japan, Tokyo, Japan). The activity was expressed in μmol/g cells/hour.

Ppnk [2] = molecular target: T1, Ppnk

T1 sequence (P9WHV7 whole entry, looked up): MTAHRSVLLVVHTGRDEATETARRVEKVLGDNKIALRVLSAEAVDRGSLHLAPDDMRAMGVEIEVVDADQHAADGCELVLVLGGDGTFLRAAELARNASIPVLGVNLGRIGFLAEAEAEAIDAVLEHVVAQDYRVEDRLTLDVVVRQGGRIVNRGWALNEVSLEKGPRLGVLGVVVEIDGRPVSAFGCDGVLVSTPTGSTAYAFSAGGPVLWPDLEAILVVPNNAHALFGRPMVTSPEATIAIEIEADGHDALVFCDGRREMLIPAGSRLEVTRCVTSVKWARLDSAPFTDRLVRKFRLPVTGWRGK

Row | SMILES | inhibition of polyphosphate-dependent NAD kinase activity of Ppnk (Ppnk [1]) | Mg2+ concentration giving highest activity (Ppnk [2]) [mM] | effectiveness among metal ions (Mg2+, Mn2+, Ca2+) (Ppnk [2])
1 | Nc1ncnc2c1ncn2[C@@H]1O[C@H](COP(=O)(O)OP(=O)(O)O)[C@@H](O)[C@H]1O [ADP] | not inhibited | – | –
2 | [Cl-].[Cl-].[Mg+2] [MgCl2] | – | 100 | most effective
